Results taken from patent US20060079453A1, “Hla binding peptides and their uses” (priority 2002, published 2006).
Where two headings read alike, the source gives them in different places. No end group written: not given here.

Key:
Assay in all cases: biochemical
HLA-B*0702 = HLA-B*0702 (Homo sapiens, UniProt P01889); assay type: binding; details: B*0702 binding affinity (IC50)
HLA-B*3501 = HLA-B*3501 (Homo sapiens, UniProt P01889, A329T/A93T/A95T/C349S/D201E/D98Y/E176V/E187L/E204Q/E69T/I218V/K202T/L119I/Q94N/R155S/R180L/S121R/S35A/S48A/T118I/V127L/V306I/V36M/Y140S/Y91F); details: B*3501 binding affinity (IC50)
HLA-B*5101 = HLA-B*5101 (Homo sapiens, UniProt P01889, A329T/A93T/A95T/C349S/D138N/D201E/D98Y/E187L/E204Q/E69T/G107R/I218V/K202T/L105A/L119W/N104I/Q94N/R106L/R155S/R180L/S101N/S121T/S35A/S48A/V306I/V36M/Y195H/Y91F); details: B*5101 binding affinity (IC50)
HLA-B*5301 = HLA-B*5301 (Homo sapiens, UniProt P01889, A329T/A93T/A95T/C349S/D201E/D98Y/E176V/E187L/E204Q/E69T/G107R/I218V/K202T/L105A/L119I/N104I/Q94N/R106L/R155S/R180L/S101N/S121R/S35A/S48A/T118I/V127L/V306I/V36M/Y140S/Y91F); assay type: binding; details: B*5301 binding affinity (IC50)
H-2Ld = H-2Ld (Mus musculus, UniProt P01897); assay type: binding, murine
[1] = target: HLA-DQ DQA1*0301/B*0302 (DQ8) (Homo sapiens, UniProt P01909+P01920, A209T/A45G/C70Q/D89A/DUP78-78/E183D/E77G/F237L/G63E/H199R/I129T/K197E/L178F/L74F/L98V/Q57E/Q76R/S185I/S97I/T217I/T49S/V73L/Y58L)
HLA-B*5401 = HLA-B*5401 (Homo sapiens, UniProt P01889, A329T/C349S/D138N/D201E/E176V/E187T/E204Q/E69G/I76V/K202T/L119W/R155S/R180L/S121T/S35A/S48A/V127L/V306I/V36M/Y140L); assay type: binding; details: B*5401 binding affinity (IC50)
H-2 Db = H-2 Db (Mus musculus, UniProt P01899); assay type: binding, murine; details: Db
H-2Kk = H-2Kk (Mus musculus, UniProt P04223); assay type: binding, murine
HLA-B*1801 = HLA-B*1801 (Homo sapiens, UniProt P01889, A329T/A93T/A95T/C349S/D201E/D54G/D98Y/E176V/E187T/E204Q/E69T/K202T/Q94N/R155S/R180L/S121R/V306I/Y140S/Y195H/Y33H/Y91S); assay type: binding
HLA-B*4001 = HLA-B*4001 (Homo sapiens, UniProt P01889, A65T/A93T/A95T/D138N/D98Y/E176V/E69K/N87E/Q56L/Q94N/R180L/S121R/S35A/S48T/T167S/V36M/W171L/Y33H/Y91S); assay type: binding
HLA-B*4002 = HLA-B*4002 (Homo sapiens, UniProt P01889, A65T/A93T/A95T/D138N/D201E/D98Y/E176V/E204Q/E69K/K202T/N87E/Q56L/Q94N/R180L/S48T/Y33H/Y91S); assay type: binding
HLA-B*4402 = HLA-B*4402 (Homo sapiens, UniProt P01889, A223V/A65T/A93T/A95T/D201E/D98Y/E176V/E187L/E204Q/E69K/G107R/H137Y/K202T/L105A/L119I/N104T/N87E/Q56L/Q94N/R106L/R155S/R180D/S101N/S121R/S35A/S48T/T118I/V36M/W191S/Y140D/Y91S); assay type: binding
HLA-B*4501 = HLA-B*4501 (Homo sapiens, UniProt P01889, A329T/A65T/A93T/A95T/C349S/D138N/D201E/D98Y/E176V/E187L/E204Q/E69K/H137Y/K202T/L119W/N87E/Q56L/Q94N/R155S/R180D/S121R/S35A/S48T/V127L/V306I/V36M/W191S/Y140L/Y33H/Y91S); assay type: binding; details: B*4501
HLA-B*4403 = HLA-B*4403 (Homo sapiens, UniProt P01889, A223V/A65T/A93T/A95T/D201E/D98Y/E176V/E187L/E204Q/E69K/G107R/H137Y/K202T/L105A/L119I/N104T/N87E/Q56L/Q94N/R106L/R155S/R180L/S101N/S121R/S35A/S48T/T118I/V36M/W191S/Y140D/Y91S); assay type: binding

H-2Kk, sequence (P04223 22-369): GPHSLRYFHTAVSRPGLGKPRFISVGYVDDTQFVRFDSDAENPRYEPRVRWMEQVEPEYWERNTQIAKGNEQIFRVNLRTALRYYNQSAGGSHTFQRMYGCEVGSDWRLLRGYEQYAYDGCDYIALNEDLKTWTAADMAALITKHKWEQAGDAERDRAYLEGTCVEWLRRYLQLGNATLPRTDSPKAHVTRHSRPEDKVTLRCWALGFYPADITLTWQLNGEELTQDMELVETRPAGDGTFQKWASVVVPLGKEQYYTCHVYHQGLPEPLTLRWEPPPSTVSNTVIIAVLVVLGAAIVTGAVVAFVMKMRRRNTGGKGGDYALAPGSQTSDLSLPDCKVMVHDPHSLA
H-2Kk, sequence (P61769 21-119, further chain): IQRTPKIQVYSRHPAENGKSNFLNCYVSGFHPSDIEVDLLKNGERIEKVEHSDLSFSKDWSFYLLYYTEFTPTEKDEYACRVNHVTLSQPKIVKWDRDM
H-2Ld, sequence (P01897 25-362): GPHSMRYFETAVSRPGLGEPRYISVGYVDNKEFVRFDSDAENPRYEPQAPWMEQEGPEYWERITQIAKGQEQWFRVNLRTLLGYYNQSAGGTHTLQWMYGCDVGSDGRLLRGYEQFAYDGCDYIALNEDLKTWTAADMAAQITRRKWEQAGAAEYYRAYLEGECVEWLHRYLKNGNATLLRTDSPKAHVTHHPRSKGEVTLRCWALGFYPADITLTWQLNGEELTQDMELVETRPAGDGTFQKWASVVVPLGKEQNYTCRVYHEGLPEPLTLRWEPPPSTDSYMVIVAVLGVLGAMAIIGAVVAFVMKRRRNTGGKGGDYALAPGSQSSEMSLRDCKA
H-2Ld, sequence (P61769 21-119, further chain): as the sequence (P61769 21-119, further chain) above
H-2 Db, sequence (P61769 21-119): as the sequence (P61769 21-119, further chain) above
H-2 Db, sequence (P01899 25-362): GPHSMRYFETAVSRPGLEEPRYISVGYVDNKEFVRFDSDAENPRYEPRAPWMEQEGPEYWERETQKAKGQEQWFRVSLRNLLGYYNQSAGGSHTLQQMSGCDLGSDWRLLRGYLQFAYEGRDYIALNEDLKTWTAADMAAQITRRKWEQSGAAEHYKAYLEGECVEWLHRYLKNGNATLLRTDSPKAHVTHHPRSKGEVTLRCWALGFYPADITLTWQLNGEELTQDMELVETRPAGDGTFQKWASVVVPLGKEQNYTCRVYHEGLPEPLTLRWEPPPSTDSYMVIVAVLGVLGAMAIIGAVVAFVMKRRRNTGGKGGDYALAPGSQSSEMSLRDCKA

Q: FPLTFGWCFKI was tested. Which IC50 (HLA-B*0702) did it give?
A: Its IC50 is 52600 nM.

Q: What about the IC50 (HLA-B*3501) of the same compound?
A: The IC50 was 4990 nM.

Q: What about the IC50 (HLA-B*5101) of the same compound?
A: Its IC50 is 590 nM.

Q: What about the IC50 (HLA-B*5301) of the same compound?
A: The IC50 was 188 nM.

Q: With RPQASGVAM as the compound, how does the IC50 (H-2Ld; Ld) read?
A: The IC50 was 12 nM.

Q: For IDVWLGGLKENFLPY, which IC50 [1] is on record?
A: Its IC50 is > 2800 nM.

Q: What does the source list for FPGPGPGPL?
A: IC50 (HLA-B*0702): 1580 nM; IC50 (HLA-B*3501): 426 nM; IC50 (HLA-B*5101): 2330 nM; IC50 (HLA-B*5301): 21000 nM; IC50 (HLA-B*5401): 29900 nM

Q: What does the source list for RPRGPGPGSEF?
A: IC50 (HLA-B*0702): 11 nM; IC50 (HLA-B*3501): 24900 nM; IC50 (HLA-B*5101): > 14800 nM; IC50 (HLA-B*5301): 19300 nM; IC50 (HLA-B*5401): 2740 nM

Q: Which IC50 (HLA-B*0702) does the source give for APCNFFTSA here?
A: The IC50 was 43 nM.

Q: And the IC50 (HLA-B*3501)?
A: The IC50 was 8090 nM.

Q: And the IC50 (HLA-B*5301)?
A: The IC50 was > 22400 nM.

Q: And the IC50 (HLA-B*5401)?
A: Its IC50 is 0.61 nM.

Q: CPTVQASKL was tested. Which IC50 (HLA-B*0702) did it give?
A: The IC50 was 3250 nM.

Q: And the IC50 (HLA-B*3501)?
A: The IC50 was 645 nM.

Q: What about the IC50 (HLA-B*5101) of the same compound?
A: The IC50 was 448 nM.

Q: And the IC50 (HLA-B*5301)?
A: The IC50 was 1860 nM.

Q: And the IC50 (HLA-B*5401)?
A: The IC50 was 21600 nM.

Q: What does the source list for KAVANFATM?
A: IC50 (H-2 Db): 1.2 nM; IC50 (H-2Ld; Ld): 27000 nM

Q: RPQVPLRPI was tested. Which IC50 (HLA-B*0702) did it give?
A: Its IC50 is 367 nM.

Q: What about the IC50 (HLA-B*3501) of the same compound?
A: The IC50 was > 23200 nM.

Q: And the IC50 (HLA-B*5101)?
A: Its IC50 is > 9000 nM.

Q: What about the IC50 (HLA-B*5301) of the same compound?
A: The IC50 was 85300 nM.

Q: For SENDRYRLL, which IC50 (H-2Kk; read-out: Kk) is on record?
A: The IC50 was 13 nM.

Q: What does the source list for YEANGNLI?
A: IC50 (HLA-B*1801): 191 nM; IC50 (HLA-B*4001): 7.9 nM; IC50 (HLA-B*4002): 7 nM; IC50 (HLA-B*4402): 516 nM; IC50 (H-2Kk): 0.65 nM

Q: How did the IC50 (HLA-B*1801; B*1801) turn out when QEKKRHVDL was run?
A: Its IC50 is 7.3 nM.

Q: And the IC50 (HLA-B*4001; B*4001)?
A: The IC50 was 16000 nM.

Q: What about the IC50 (HLA-B*4002; B*4002) of the same compound?
A: Its IC50 is 63100 nM.

Q: And the IC50 (HLA-B*4402; B*4402)?
A: The IC50 was 443 nM.

Q: And the IC50 (HLA-B*4501)?
A: The IC50 was 12600 nM.

Q: And the IC50 (H-2Kk)?
A: Its IC50 is 256 nM.

Q: IPQSLDSWTSL was tested. Which IC50 (H-2Ld; Ld) did it give?
A: Its IC50 is 0.22 nM.

Q: Which IC50 (HLA-B*1801; B*1801) does the source give for HETTYNSI here?
A: Its IC50 is 1640 nM.

Q: And the IC50 (HLA-B*4002; B*4002)?
A: The IC50 was 336 nM.

Q: What about the IC50 (HLA-B*4402; B*4402) of the same compound?
A: The IC50 was 616 nM.

Q: And the IC50 (HLA-B*4501)?
A: The IC50 was 6610 nM.

Q: And the IC50 (H-2Kk)?
A: Its IC50 is 1.8 nM.

Q: For `CC(C)C[C@H](NC(=O)[C@H](C)NC(=O)[C@@H](NC(=O)[C@H](CC(C)C)NC(=O)[C@H](C)NC(=O)[C@@H](NC(=O)[C@@H](NC(=O)[C@H](CCCNC(=N)N)NC(=O)[C@@H]1CCCN1C(=O)[C@H](C)N)[C@@H](C)O)C(C)C)[C@@H](C)O)C(=O)O` [APRTVALTAL], which IC50 (HLA-B*0702) is on record?
A: Its IC50 is 12 nM.

Q: What about the IC50 (HLA-B*3501) of the same compound?
A: The IC50 was 4350 nM.

Q: What about the IC50 (HLA-B*5101) of the same compound?
A: Its IC50 is 14600 nM.

Q: What about the IC50 (HLA-B*5301) of the same compound?
A: The IC50 was 61600 nM.

Q: And the IC50 (HLA-B*5401)?
A: The IC50 was 16800 nM.

Q: For KAVYNFAAM, which IC50 (H-2 Db) is on record?
A: The IC50 was 4.4 nM.

Q: And the IC50 (H-2Ld; Ld)?
A: Its IC50 is 27000 nM.

Q: With RIPNASGVYM as the compound, how does the IC50 (H-2Ld; read-out: Ld) read?
A: The IC50 was 19 nM.

Q: Which IC50 (HLA-B*1801) does the source give for SDYEGRLI here?
A: Its IC50 is > 24800 nM.

Q: And the IC50 (HLA-B*4002)?
A: Its IC50 is 86 nM.

Q: What about the IC50 (HLA-B*4403) of the same compound?
A: Its IC50 is 228 nM.

Q: What about the IC50 (H-2Kk) of the same compound?
A: The IC50 was 0.6 nM.

Q: Which results are given for KAVYNYATM?
A: IC50 (H-2 Db): 2.1 nM; IC50 (H-2Ld; Ld): > 27000 nM

Q: NEILIRCII was tested. Which IC50 (HLA-B*1801; B*1801) did it give?
A: Its IC50 is 5670 nM.

Q: And the IC50 (HLA-B*4002; B*4002)?
A: Its IC50 is 59 nM.

Q: And the IC50 (HLA-B*4403; B*4403)?
A: Its IC50 is 258 nM.

Q: What about the IC50 (HLA-B*4501) of the same compound?
A: Its IC50 is 3250 nM.

Q: And the IC50 (H-2Kk)?
A: The IC50 was 12 nM.

Q: `N=C(N)NCCC[C@H](NC(=O)[C@H](CCC(N)=O)NC(=O)[C@@H]1CCCN1C(=O)[C@@H](N)CCC(N)=O)C(=O)NCC(=O)N[C@@H](Cc1ccc(O)cc1)C(=O)N[C@@H](CCC(=O)O)C(=O)N[C@@H](CC(N)=O)C(=O)N[C@@H](Cc1ccccc1)C(=O)O` was tested. Which IC50 (H-2Ld; Ld) did it give?
A: Its IC50 is 319 nM.
